Data reported in US10653679B2, “Compositions and methods for inhibiting bacterial growth” (priority 2015, dated 2020).
pEC50: −log10 of the molar value. “Also recorded” adds a separate entry of the source. Where two headings read alike, the source gives them in different places.

Experiments:
PhoPR regulon [1] = assay: microbe, parasite or virus in culture; assay type: cell-based; conditions: Mycobacterium tuberculosis
Mtb CDC1551(aprA′::GFP) = assay type: cell-based, Mycobacterium tuberculosis
PhoPR regulon [2] = assay: RNA-seq transcriptional profiling; assay type: cell-based, Mycobacterium tuberculosis
PhoPR regulon [3] = assay: Semi-quantitative real-time PCR of phoP, aprA and pks2; assay type: cell-based, Mycobacterium tuberculosis
Esx-1 protein export = assay: Analysis of Esx-1 protein export (Western blot); assay type: cell-based, Mycobacterium tuberculosis; conditions: Mtb Erdman, Sauton's medium, ETZ 80 μM
PhoPR regulon [4] = assay: cells; assay type: cell-based, Mycobacterium tuberculosis
[5] = in animals, previously reported, cited from earlier work
WT Mtb CDC1551 = assay: Cytoplasmic pH measurement
[6] = system: Mtb-associated granulomatous pneumonia; assay: Lung histopathology of infected mice; conditions: ETZ 100 mg/kg vs CMC treated animals
Source text: (§1) C57BL/6 mice were infected via the intranasal route with 1000 CFU of the Erdman (aprA′::GFP smyc′::mCherry) dual fluorescent reporter. […] After 4 weeks, the right lung was homogenized and plated for enumeration of the bacterial load and the left lung was fixed in 4% paraformaldehyde before being transferred to 30% sucrose for confocal microscopy and pathology evaluation (FIG. 8). This experiment was repeated and the data from the two independent biological replicates were similar and therefore combined. […] Mice were euthanized by carbon dioxide asphyxiation followed by cervical dislocation.
For histopathology, transverse sections of each lung specimen was fixed in 4% paraformaldehyde for 48 hours, transferred to 50% ethanol for 4 hours, processed routinely, embedded in paraffin, and sectioned at 4 μm, followed by routine hematoxylin and eosin staining.

Mtb lipid synthesis = assay: Analysis of mycobacterial lipids (14C radio-TLC); conditions: 80 μM ETZ
BMDMs = assay: Phagosome acidification (pHrodo labeled beads in BMDMs); conditions: ETZ up to 100 μM, 4 h pre-treatment, 100 minutes
PhoPR regulon [7] = assay: Quantitative single-cell imaging of reporter fluorescence in infected mouse lungs; conditions: ETZ treated lungs, 100 mg/kg oral, 4 weeks
Source text: as §1
PFA fixed mouse lungs were frozen in a 30% sucrose PBS pH 7.4 solution, frozen in a dry ice, ethanol bath, and stored at −80° C. until imaging. At the time of imaging, lungs were thawed and hand-sectioned using a sterile scalpel. Sections were transferred to a microscope slide and 10 μL of ProLong® Gold antifade reagent (Invitrogen) was added. […] Settings for GFP and mCherry fluorescence were held constant through the image acquisition to allow for comparison between samples. For quantification of Mtb reporter fluorescence, bacilli were identified in the mCherry channel and the corresponding sum of GFP fluorescence was measured using the Volocity software package (Perkin Elmer). At least 1500 bacilli were counted across multiple fields of view and lungs.

In the case of CCOc1ccc2nc(S(N)(=O)=O)sc2c1 [ETZ, 6-ethoxy-1,3-benzothiazole-2-sulfonamide], the pEC50 (PhoPR regulon [1]; 144 h, pH 5.7, read-out: EC50 of inhibition of CDC1551(aprA′::GFP) reporter fluorescence) was 5.25, the pEC50 (PhoPR regulon [1]; pH 7, read-out: EC50 of inhibition of aprA′::GFP reporter fluorescence) was 5.33 and the effect on growth (Mtb CDC1551(aprA′::GFP); pH 5.7, across the range of ETZ concentrations tested) was “mostly unaffected; also recorded: little effect on growth”. The effect on growth (Mtb CDC1551(aprA′::GFP); pH 7.0) was “little effect on growth”, the “down-regulation of espR and the espACD operon” value (PhoPR regulon [2]) was greater than 1.5 fold and the “down-regulation of mmpL8-pks2 operon (Rv3823c-Rv3825c)” value (PhoPR regulon [2]; ETZ at acidic pH) was roughly 5 fold. The “regulation of phoP gene expression” value (PhoPR regulon [3]) was “did not exhibit substantial differential regulation”, the “down-regulation of aprA” value (PhoPR regulon [3]; both pH 7.0 and 5.7) was greater than 5 fold and the “down-regulation of pks2” value (PhoPR regulon [3]; both pH 7.0 and 5.7) was greater than 5 fold. For the same compound, the “ESAT-6 and CFP-10 expression” value (Esx-1 protein export) was “did not affect”, the “secretion of ESAT-6 and CFP-10” value (Esx-1 protein export) was “strongly and selectively reduced; also recorded: inhibits the secretion” and the “secretion of Sec-secreted protein Mpt-32” value (Esx-1 protein export) was “did not alter”. The “inhibition of reporter GFP fluorescence in infected macrophages” value (PhoPR regulon [4]) was “significantly down-regulates”, the inhibition at 100 µM (PhoPR regulon [4]; Mycobacterium tuberculosis, BMDM, read-out: inhibition of reporter GFP fluorescence in infected macrophages) was greater than 90% and the drug-related organ lesions ([5]; 100 mg/kg) was “no observable drug-related organ lesions”. For the same compound, the LD50 [5] was roughly 1000 mg/kg, the half-life [5] was 2.5 to 5.5 h and the acidification of cytoplasm (WT Mtb CDC1551; ETZ 80 μM, 6 days, medium pH 5.7) was less than 0.1 pH units. The “change of cytoplasmic pH” value (WT Mtb CDC1551; ETZ 80 μM, 6 days, medium pH 7.0) was “no change”, the “acidification of cytoplasmic pH” value (WT Mtb CDC1551; ETZ treated Mtb) was “slight acidification” and the “percent lung area affected (Mtb-associated granulomatous pneumonia)” value [6] was “did not have a significant reduction; also recorded: no significant difference”. For the same compound, the “accumulation of sulfolipid (SL)” value (Mtb lipid synthesis) was “not detected; also recorded: lack of accumulation”, the phagosome acidification (BMDMs) was “did not alter phagosome acidification” and the “Mtb cells in the bottom decile of GFP fluorescence” value (PhoPR regulon [7]) was 49%.
